Assay results as given in patent US11001584B2, “Polymorphs” (SYNGENTA PARTICIPATIONS AG, priority 2016, dated 2021).

Test: Stability of polymorphs: equal amounts of both polymorphs stirred in IPA, form determined by DSC and high throughput pXRD
Assay type: physicochemical
Conditions: 24 hours
Description: Equal amounts of the polymorph of the invention and the Reference Form A polymorph were stirred in IPA at a range of temperatures. After 24 hours, the crystals were isolated and dried and their polymorphic form determined by DSC and high throughput pXRD.

Row | Structure (SMILES) | DSC curves of the isolated crystals (polymorphic form present) (equal amounts of polymorph of the invention and Reference Form A stirred in IPA at a range of temperatures) | Powder XRD patterns of the isolated crystals (polymorphic form present) (equal amounts of polymorph of the invention and Reference Form A stirred in IPA, room temperature, 40° C. and 50° C.) | Relative polymorphic stability (stirred with Reference Form A in IPA, room temperature up to 50° C.)
1 | CCOC(=O)OC1=C(c2c(C)cc(Cl)cc2C)C(=O)N(C)C12CCN(OC)CC2 [Reference Form A] | marked reduction in the presence of Reference Form A | reflections characteristic of Reference Form A were absent | 
2 | CCOC(=O)OC1=C(c2c(C)cc(Cl)cc2C)C(=O)N(C)C12CCN(OC)CC2 [polymorph of the invention] |  |  | the stable form over the temperature range studied
